The numbers were not newly measured in patent US9114107B2, “Compositions for inhibiting virus entry and promoting virolysis, and methods thereof” (priority 2010, dated 2015), which cites them from elsewhere.

The subject of this series is virus challenge. The following applies: cited from earlier work.

Each structure is given as a SMILES string.

Consider `COc1ccnc2[nH]cc(C(=O)C(=O)N3CCN(C(=O)c4ccccc4)C[C@H]3C)c12` [BMS-806, (R)-1-(4-benzoyl-2-methylpiperazin-1-yl)-2-(4-methoxy-1H-pyrrolo[2,3-b]pyridin-3-yl)ethane-1,2-dione], for which, where the note is “biopsy after multiple applications”, the “local irritation or inflammation of macaque vagina” value is on record as “No local irritation or inflammation was observed”. The animals protected (macaques challenged with virus 2-6 hours after application) is reported as 3 of 5.
